Test results reported in patent publication US20110098177A1, “METHODS AND COMPOSITIONS OF PLANT MICRONUTRIENTS” (NOVUS INTERNATIONAL INC., priority 2006, published 2011).
“Also recorded” adds a separate entry of the source.

Key:
Type in all cases: in vivo
Tygress tomato plants [1] = test: Marketable yield, open-field tomato (Examples 7-10); details: open field; for Marketable yield, Tomato: lb/acre/season: BIOX-Z 1.3, Cu 6.7, M 23.0, Fe 3.2, INC 4.0, INZ 0.6, CM 10.0, GZ 1.0, GF 4.0, EDZ 1.4, EDM 23.0
Outline: (§1)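 Open-field 2008 trial, Balm FL; 'Tygress' tomato and 'Patriot' pepper transplants on drip-fed raised beds. Foliar micronutrient sprays at 3 and 5 WAT (BIOX-CM at 4 and 5), 60 gal/acre with surfactant. Youngest mature leaves sampled 6 WAT; RCBD, 5 replications, Fisher's LSD 5%.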

[2] = system: Patriot bell pepper plants; test: Foliar nutrient concentration at 6 WAT, open-field bell pepper (Examples 7-10)
Outline: as §1

Tygress tomato plants [3] = test: Foliar nutrient concentration 2 weeks after treatment, greenhouse tomato (Examples 4-6); details: for B concentration in tomato leaves / Ca concentration in tomato leaves / Cu concentration in tomato leaves / Fe concentration in tomato leaves / K concentration in tomato leaves / Mg concentration in tomato leaves / N concentration in tomato leaves / P concentration in tomato leaves / Zn concentration in tomato leaves: 2 weeks after Mn treatment; for Foliar Mn concentration: tomato leaves 2 weeks after Mn treatment
Outline: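 Tygress tomato in 2-gallon pots of micronutrient-poor medium (negligible Fe, Zn, Mn, Cu) in greenhouse; foliar treatments at 5 WAT in 200 mL/plant water with non-ionic surfactant. Newest non-applied leaves analysed 2 weeks before and after treatment; marketable fruit harvested three times from 10 WAT, graded. RCBD, 6 replications, LSD 5%.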

Tygress tomato plants [4] = test: Nutrient concentration of tomato fruits at 10 WAT, open field (Examples 7-10)
Outline: as §1

Tygress tomato plants [5] = test: Foliar nutrient concentration at 6 WAT, open-field tomato (Examples 7-10); details: 6 WAT, open field; for Foliar B concentration of tomato plants / Foliar Ca concentration of tomato plants / Foliar Cu concentration of tomato plants / Foliar Fe concentration of tomato plants / Foliar K concentration of tomato plants / Foliar Mg concentration of tomato plants / Foliar Mn concentration of tomato plants / Foliar N concentration of tomato plants / Foliar P concentration of tomato plants / Foliar Zn concentration of tomato plants: product rate as Table 17
Outline: as §1

[6] = system: Patriot bell pepper plants; test: Marketable yield, open-field bell pepper (Examples 7-10); details: open field; lb/acre/season: BIOX-Z 1.3, Cu 6.7, M 23.0, Fe 3.2, INC 4.0, INZ 0.6, CM 10.0, GZ 1.0, GF 4.0, EDZ 1.4, EDM 23.0
Outline: as §1

[7] = 6 WAT, open field, product rate as Table 17
[8] = 10 WAT, open field, product rate as Table 17

With `CSCCC(O)C(=O)[O-].CSCCC(O)C(=O)[O-].[Mn+2]` (stereo not drawn) [BIOX-M, Mn-HMTBA] the “Tomato marketable yield compared to control, statement” value (Tygress tomato plants [1]) was “significantly higher marketable yield of tomato fruits; also recorded: higher marketable yield of tomato fruits compared to control”, the “Marketable yield, Tomato” value (Tygress tomato plants [1]) was 18.1 a ton/acre and the “Foliar B concentration of bell pepper plants” value [2, 7] was 59 ppm. For the same molecule, the “Foliar Ca concentration of bell pepper plants” value [2, 7] was 4.2%, the “Foliar Cu concentration of bell pepper plants” value [2, 7] was 462 ppm and the “Foliar Fe concentration of bell pepper plants” value [2, 7] was 124 ppm. For the same molecule, the “Foliar K concentration of bell pepper plants” value [2, 7] was 3.4%, the “Foliar Mg concentration of bell pepper plants” value [2, 7] was 0.52% and the “Foliar Mn concentration of bell pepper plants” value [2, 7] was 436 ppm. The “Foliar N concentration of bell pepper plants” value [2, 7] was 4.4%, the “Foliar P concentration of bell pepper plants” value [2, 7] was 0.25% and the “Foliar Zn concentration of bell pepper plants” value [2, 7] was 63 ppm. For the same molecule, the “B concentration in tomato leaves” value (Tygress tomato plants [3]; Mn 0.31 lb/acre) was 22 ppm, the “Ca concentration in tomato leaves” value (Tygress tomato plants [3]; Mn 0.31 lb/acre) was 0.6% and the “Cu concentration in tomato leaves” value (Tygress tomato plants [3]; Mn 0.31 lb/acre) was 5 ppm. The “Fe concentration in tomato leaves” value (Tygress tomato plants [3]; Mn 0.31 lb/acre) was 109 ppm, the “K concentration in tomato leaves” value (Tygress tomato plants [3]; Mn 0.31 lb/acre) was 3.1% and the “Mg concentration in tomato leaves” value (Tygress tomato plants [3]; Mn 0.31 lb/acre) was 0.3%. The “N concentration in tomato leaves” value (Tygress tomato plants [3]; Mn 0.31 lb/acre) was 3.5%, the “P concentration in tomato leaves” value (Tygress tomato plants [3]; Mn 0.31 lb/acre) was 0.4% and the “Zn concentration in tomato leaves” value (Tygress tomato plants [3]; Mn 0.31 lb/acre) was 31 ppm. The “Foliar Mn concentration” value (Tygress tomato plants [3]; Mn 0.31 lb/acre) was 22.9 b ppm, the “B concentration in tomato leaves” value (Tygress tomato plants [3]; Mn 0.62 lb/acre) was 24 ppm and the “Ca concentration in tomato leaves” value (Tygress tomato plants [3]; Mn 0.62 lb/acre) was 0.6%. The “Cu concentration in tomato leaves” value (Tygress tomato plants [3]; Mn 0.62 lb/acre) was 5 ppm, the “Fe concentration in tomato leaves” value (Tygress tomato plants [3]; Mn 0.62 lb/acre) was 110 ppm and the “K concentration in tomato leaves” value (Tygress tomato plants [3]; Mn 0.62 lb/acre) was 3.2%. For the same molecule, the “Mg concentration in tomato leaves” value (Tygress tomato plants [3]; Mn 0.62 lb/acre) was 0.3%, the “N concentration in tomato leaves” value (Tygress tomato plants [3]; Mn 0.62 lb/acre) was 3.5% and the “P concentration in tomato leaves” value (Tygress tomato plants [3]; Mn 0.62 lb/acre) was 0.5%. For the same molecule, the “Zn concentration in tomato leaves” value (Tygress tomato plants [3]; Mn 0.62 lb/acre) was 32 ppm, the “Foliar Mn concentration” value (Tygress tomato plants [3]; Mn 0.62 lb/acre) was 29.5 b ppm and the “B concentration in tomato leaves” value (Tygress tomato plants [3]; Mn 1.23 lb/acre) was 25 ppm. The “Ca concentration in tomato leaves” value (Tygress tomato plants [3]; Mn 1.23 lb/acre) was 0.6%, the “Cu concentration in tomato leaves” value (Tygress tomato plants [3]; Mn 1.23 lb/acre) was 5 ppm and the “Fe concentration in tomato leaves” value (Tygress tomato plants [3]; Mn 1.23 lb/acre) was 112 ppm. The “K concentration in tomato leaves” value (Tygress tomato plants [3]; Mn 1.23 lb/acre) was 3.1%, the “Mg concentration in tomato leaves” value (Tygress tomato plants [3]; Mn 1.23 lb/acre) was 0.3% and the “N concentration in tomato leaves” value (Tygress tomato plants [3]; Mn 1.23 lb/acre) was 3.5%. The “P concentration in tomato leaves” value (Tygress tomato plants [3]; Mn 1.23 lb/acre) was 0.5%, the “Zn concentration in tomato leaves” value (Tygress tomato plants [3]; Mn 1.23 lb/acre) was 28 ppm and the “Foliar Mn concentration” value (Tygress tomato plants [3]; Mn 1.23 lb/acre) was 60.6 a ppm. For the same molecule, the “B concentration in tomato leaves” value (Tygress tomato plants [3]; Mn 2.46 lb/acre) was 23 ppm, the “Ca concentration in tomato leaves” value (Tygress tomato plants [3]; Mn 2.46 lb/acre) was 0.6% and the “Cu concentration in tomato leaves” value (Tygress tomato plants [3]; Mn 2.46 lb/acre) was 5 ppm. The “Fe concentration in tomato leaves” value (Tygress tomato plants [3]; Mn 2.46 lb/acre) was 114 ppm, the “K concentration in tomato leaves” value (Tygress tomato plants [3]; Mn 2.46 lb/acre) was 3.2% and the “Mg concentration in tomato leaves” value (Tygress tomato plants [3]; Mn 2.46 lb/acre) was 0.3%. For the same molecule, the “N concentration in tomato leaves” value (Tygress tomato plants [3]; Mn 2.46 lb/acre) was 3.6%, the “P concentration in tomato leaves” value (Tygress tomato plants [3]; Mn 2.46 lb/acre) was 0.4% and the “Zn concentration in tomato leaves” value (Tygress tomato plants [3]; Mn 2.46 lb/acre) was 33 ppm. The “Foliar Mn concentration” value (Tygress tomato plants [3]; Mn 2.46 lb/acre) was 69.2 a ppm, the “B concentration of tomato fruits” value (Tygress tomato plants [4]; [8]) was 23 ppm and the “Ca concentration of tomato fruits” value (Tygress tomato plants [4]; [8]) was 0.2%. The “Cu concentration of tomato fruits” value (Tygress tomato plants [4]; [8]) was 23 b ppm, the “Fe concentration of tomato fruits” value (Tygress tomato plants [4]; [8]) was 81 b ppm and the “K concentration of tomato fruits” value (Tygress tomato plants [4]; [8]) was 8.0%. For the same molecule, the “Mg concentration of tomato fruits” value (Tygress tomato plants [4]; [8]) was 0.37%, the “Mn concentration of tomato fruits” value (Tygress tomato plants [4]; [8]) was 43 b ppm and the “N concentration of tomato fruits” value (Tygress tomato plants [4]; [8]) was 4.2%. The “P concentration of tomato fruits” value (Tygress tomato plants [4]; [8]) was 0.65%, the “Zn concentration of tomato fruits” value (Tygress tomato plants [4]; [8]) was 209 b ppm and the “Foliar concentration of Mn of tomato plants, statement” value (Tygress tomato plants [5]) was “significant increase; also recorded: highest foliar concentration of Mn; also recorded: significantly higher foliar Mn content”. The “Foliar concentration of P of tomato plants compared to control, statement” value (Tygress tomato plants [5]) was “significant increase”, the “Foliar B concentration of tomato plants” value (Tygress tomato plants [5]) was 70 ppm and the “Foliar Ca concentration of tomato plants” value (Tygress tomato plants [5]) was 1.7%. For the same molecule, the “Foliar Cu concentration of tomato plants” value (Tygress tomato plants [5]) was 417 ppm, the “Foliar Fe concentration of tomato plants” value (Tygress tomato plants [5]) was 88 ppm and the “Foliar K concentration of tomato plants” value (Tygress tomato plants [5]) was 4.6 b %. The “Foliar Mg concentration of tomato plants” value (Tygress tomato plants [5]) was 0.56%, the “Foliar Mn concentration of tomato plants” value (Tygress tomato plants [5]) was 470 a ppm and the “Foliar N concentration of tomato plants” value (Tygress tomato plants [5]) was 4.4%. For the same molecule, the “Foliar P concentration of tomato plants” value (Tygress tomato plants [5]) was 0.19 b %, the “Foliar Zn concentration of tomato plants” value (Tygress tomato plants [5]) was 266 b ppm and the “Marketable yield, Bell Pepper” value [6] was 6.3 ton/acre.

For Fe-HMTBA [BIOX-Fe], the “Tomato marketable yield compared to control, statement” value (Tygress tomato plants [1]) was “significantly higher tomato marketable yield compared to control”, the “Marketable yield, Tomato” value (Tygress tomato plants [1]) was 17.8 a ton/acre and the “Foliar nutrient concentration: B” value ([2]; bell pepper plants at 6 WAT) was 39 ppm. The “Foliar nutrient concentration: Ca” value ([2]; bell pepper plants at 6 WAT) was 2.2%, the “Foliar nutrient concentration: Cu” value ([2]; bell pepper plants at 6 WAT) was 369 ppm and the “Foliar nutrient concentration: Fe” value ([2]; bell pepper plants at 6 WAT) was 112 ppm. For the same molecule, the “Foliar nutrient concentration: K” value ([2]; bell pepper plants at 6 WAT) was 6.0%, the “Foliar nutrient concentration: Mg” value ([2]; bell pepper plants at 6 WAT) was 0.66% and the “Foliar nutrient concentration: Mn” value ([2]; bell pepper plants at 6 WAT) was 251 ppm. The “Foliar nutrient concentration: N” value ([2]; bell pepper plants at 6 WAT) was 5.0%, the “Foliar nutrient concentration: P” value ([2]; bell pepper plants at 6 WAT) was 0.20% and the “Foliar nutrient concentration: Zn” value ([2]; bell pepper plants at 6 WAT) was 318 ppm. For the same molecule, the “Nutrient concentration of tomato fruits: B” value (Tygress tomato plants [4]; tomato fruits at 10 WAT) was 21 ppm, the “Nutrient concentration of tomato fruits: Ca” value (Tygress tomato plants [4]; tomato fruits at 10 WAT) was 0.2% and the “Nutrient concentration of tomato fruits: Cu” value (Tygress tomato plants [4]; tomato fruits at 10 WAT) was 21 ppm. The “Nutrient concentration of tomato fruits: Fe” value (Tygress tomato plants [4]; tomato fruits at 10 WAT) was 77 ppm, the “Nutrient concentration of tomato fruits: K” value (Tygress tomato plants [4]; tomato fruits at 10 WAT) was 8.2% and the “Nutrient concentration of tomato fruits: Mg” value (Tygress tomato plants [4]; tomato fruits at 10 WAT) was 0.37%. For the same molecule, the “Nutrient concentration of tomato fruits: Mn” value (Tygress tomato plants [4]; tomato fruits at 10 WAT) was 37 ppm, the “Nutrient concentration of tomato fruits: N” value (Tygress tomato plants [4]; tomato fruits at 10 WAT) was 4.2% and the “Nutrient concentration of tomato fruits: P” value (Tygress tomato plants [4]; tomato fruits at 10 WAT) was 0.69%. The “Nutrient concentration of tomato fruits: Zn” value (Tygress tomato plants [4]; tomato fruits at 10 WAT) was 294 ppm, the “Foliar B concentration of tomato plants” value (Tygress tomato plants [5]) was 21 ppm and the “Foliar Ca concentration of tomato plants” value (Tygress tomato plants [5]) was 0.2%. For the same molecule, the “Foliar Cu concentration of tomato plants” value (Tygress tomato plants [5]) was 21 ppm, the “Foliar Fe concentration of tomato plants” value (Tygress tomato plants [5]) was 77 ppm and the “Foliar K concentration of tomato plants” value (Tygress tomato plants [5]) was 8.2%. For the same molecule, the “Foliar Mg concentration of tomato plants” value (Tygress tomato plants [5]) was 0.37%, the “Foliar Mn concentration of tomato plants” value (Tygress tomato plants [5]) was 37 ppm and the “Foliar N concentration of tomato plants” value (Tygress tomato plants [5]) was 4.2%. For the same molecule, the “Foliar P concentration of tomato plants” value (Tygress tomato plants [5]) was 0.69%, the “Foliar Zn concentration of tomato plants” value (Tygress tomato plants [5]) was 294 ppm and the “Marketable yield, Bell Pepper” value [6] was 7.2 ton/acre.
